Source: publication PMC9697025, “Discovery of N-Containing (-)-Borneol Esters as Respiratory Syncytial Virus Fusion Inhibitors” (Pharmaceuticals, 2022)
Where two headings read alike, the source gives them in different places. Marks after values point to notes of the source that are not given here.

Experiments:
rVSV-ΔG-MarV-GP = conditions: CC50/IC50MarV-GP, HEK293T cells ref 12,13; cited from earlier work
Vaccinia virus = conditions: CC50/IC50VACV ref 16; cited from earlier work
[1] = MTT cytotoxicity assay with non-infected HEp2 cells; conditions: human
[2] = tested on: A/Puerto Rico/8/34 (H1N1) virus; design: method as in PMID 30108810; conditions: CC50/IC50H1N1, A/Puerto Rico/8/34 (H1N1) ref 15; cited from earlier work
rVSV-ΔG-EboV-GP = conditions: CC50/IC50EboV-GP, HEK293T cells ref 12,13; cited from earlier work
RSV A strain A2 = assay: In vitro antiviral assay against RSV A strain A2 in HEp-2 cells (ELISA, virus titer); type: cell-based, respiratory syncytial virus; conditions: for IC50: RSV A strain A2 in HEp-2 cells, mean ± SD
pSARS-CoV-2-S = tested on: pSARS-CoV-2-S; design: method as in PMID 35746766; conditions: CC50/IC50pSARS-CoV-2-S, pseudovirus ref 14; cited from earlier work
RSV = assay: Temperature shift assay (virus attachment at 4 °C vs post-binding); conditions: unbound virus washed away, compound added before shift to 37 °C
SARS-CoV-2 = tested on: SARS-CoV-2; design: method as in PMID 35746766; conditions: CC50/IC50SARS-CoV-2, against various SARS-CoV-2 virus strains ref 14; cited from earlier work
in vitro = conditions: human
[3] = human respiratory syncytial virus, HEp-2, 50% decrease in virus replication

| Structure (SMILES) | SIMarV-GP (rVSV-ΔG-MarV-GP) | SIVACV (Vaccinia virus) | CC50 at 24 h [1] [µM] | SIH1N1 [2] | SIEboV-GP (rVSV-ΔG-EboV-GP) | SI (RSV A strain A2) | IC50 (RSV A strain A2; [3]) [µM] | SIpSARS-CoV-2-S (pSARS-CoV-2-S) | anti-RSV activity, temperature shift conditions (B) (RSV) | effect on viral titer, time-of-addition (RSV A strain; compound added at 1 h post infection) | inhibitory activity, time-of-addition (RSV A strain; compound added at later time points (after 2 h post infection)) | time of addition up to which antiviral activity was maintained (RSV A strain; post infection) | melting point [°C] | SI (RSV A strain A2; selectivity index, CC50/IC50 ratio, RSV A2 / HEp-2) | SISARS-CoV-2 (SARS-CoV-2) | IC50 (RSV A strain A2; 50% decrease in virus replication) [µM] | CC50 at 24 h (in vitro) [µM] |
| --- | --- | --- | --- | --- | --- | --- | --- | --- | --- | --- | --- | --- | --- | --- | --- | --- | --- |
| CC1(C)[C@H]2CC[C@]1(C)[C@H](OC(=O)CCN1CCOCC1)C2 [Compound 5b] | ^a SIMarV-GP = 5 | ^d SIVACV = 48 | 127 ± 15.2 | ^c SIH1N1 = 45 | ^b SIEboV-GP = 36 | 15 | 8.5 ± 2.8 | ^e SIpSARS-CoV-2-S = 18 |  |  |  |  |  |  |  |  |  |
| CC1(C)[C@H]2CC[C@]1(C)[C@H](OC(=O)CN1CCOCC1)C2 [Compound 5a] | ^a SIMarV-GP = 5 | ^d SIVACV = 56 | 413 ± 35.1 | ^c SIH1N1 = 82 | ^b SIEboV-GP = 13 | 83 | 5 ± 1 | ^e SIpSARS-CoV-2-S = 5 | antiviral activity was maintained | significant reduction in viral titer | lost their inhibitory activity | up to 2 h |  |  |  |  |  |
| CC1(C)[C@H]2CC[C@]1(C)[C@H](OC(=O)CCN1CCN(c3ccccc3)CC1)C2 [Compound 14b, (1S,2R,4S)-1,7,7-Trimethylbicyclo [2.2.1]heptan-2-yl 3-(4-phenylpiperazin-1-yl)propanoate] |  |  | 366 ± 25.8 |  |  |  | 8.1 ± 0.9 |  |  |  |  |  | 83 | 45 |  |  |  |
| CCCCN(CCCC)CC(=O)OC1CC2CCC1(C)C2(C)C (stereo not drawn) [IV (n=1)] | ^a SIMarV-GP = 6 |  |  | ^c SIH1N1 = 16 |  |  |  | ^e SIpSARS-CoV-2-S = 10 |  |  |  |  |  |  | SISARS-CoV-2 = 11–40 * |  |  |
| CCCCN(CCCC)CCC(=O)OC1CC2CCC1(C)C2(C)C (stereo not drawn) [IV (n=2)] | ^a SIMarV-GP = 15 |  |  | ^c SIH1N1 = 12 |  |  |  | ^e SIpSARS-CoV-2-S = 29 |  |  |  |  |  |  | SISARS-CoV-2 = 6–102 * |  |  |
| NC(=O)c1ncn([C@@H]2O[C@H](CO)[C@@H](O)[C@H]2O)n1 [Ribavirin, reference compound] |  |  |  |  |  | 50 | 80 |  |  |  |  |  |  |  |  | 80.1 ± 13.5 | < 4000 |
